Experimental findings from ChEMBL document CHEMBL1159366, “Antimycobacterial activity of phorbol esters from the fruits of Sapium indicum” (2003) are described below.

Converted amounts (≈) assume the structure as drawn.

For the test, the system named is Mycobacterium tuberculosis. Nature of the test: Antimycobacterial activity against Mycobacterium tuberculosis H37Ra. The class given is functional.
Usually MIC stands for the least concentration at which growth counts as inhibited. Read a low MIC as inhibition by little substance. The compound `NNC(=O)c1ccncc1` [ISONIAZID] registered an MIC of 0.04 µg/mL (≈ 0.292 µM).

`CNc1ccccc1C(=O)O[C@@H]1[C@@H](C)[C@]2(O)[C@@H]3C=C(C)C(=O)[C@H]3CC(CO)=C[C@H]2[C@@H]2C(C)(C)[C@]12OC(C)=O` [SAPINTOXIN A]: the MIC amounted to 3.12 µg/mL (≈ 5.96 µM).

`CNc1ccccc1C(=O)O[C@@H]1[C@@H](C)[C@]2(O)[C@@H]3C=C(C)C(=O)[C@H]3[C@H](O)C(C)=C[C@H]2[C@@H]2C(C)(C)[C@]12OC(C)=O` [SAPINTOXIN C]: 25 µg/mL (≈ 47.7 µM) was the least that counted as inhibitory (MIC).

As for `CNc1ccccc1C(=O)O[C@@H]1[C@@H](C)[C@]2(O)[C@@H]3C=C(C)C(=O)[C@@H]3CC(C)=C[C@H]2[C@@H]2C(C)(C)[C@]12OC(C)=O`, the lowest concentration to inhibit growth (MIC) was 200 µg/mL (≈ 394 µM).

Consider `CNc1ccccc1C(=O)O[C@@H]1[C@@H](C)[C@]2(O)[C@@H]3C=C(C)C(=O)[C@H]3CC(C)=C[C@H]2[C@@H]2C(C)(C)[C@]12OC(C)=O`, for which the MIC was 50 µg/mL (≈ 98.5 µM).

Regarding `CNc1ccccc1C(=O)O[C@@H]1[C@@H](C)[C@]2(O)[C@@H]3C=C(C)C(=O)[C@H]3[C@H](O)C(CO)=C[C@H]2[C@@H]2C(C)(C)[C@]12OC(C)=O` [SAPINTOXIN B], 12.5 µg/mL (≈ 23.2 µM) was the least that counted as inhibitory (MIC).

`NC[C@H]1O[C@H](O[C@H]2[C@H](O)[C@@H](O[C@H]3O[C@H](CO)[C@@H](O)[C@H](N)[C@H]3O)[C@H](N)C[C@@H]2N)[C@H](O)[C@@H](O)[C@@H]1O.O=S(=O)(O)O` [KANAMYCIN SULFATE] displayed an MIC of 2 µg/mL.

For the compound `CNc1ccccc1C(=O)O[C@@H]1[C@@H](C)[C@]2(O)[C@@H]3C=C(C)C(=O)[C@@H]3[C@H](O)C(CO)=C[C@H]2[C@@H]2C(C)(C)[C@]12OC(C)=O`, the MIC came to 25 µg/mL (≈ 46.3 µM).

In turn, `CNc1ccccc1C(=O)O[C@@H]1[C@@H](C)[C@]2(O)[C@@H]3C=C(C)C(=O)[C@@H]3[C@H](O)C(C)=C[C@H]2[C@@H]2C(C)(C)[C@]12OC(C)=O` gave an MIC of over 200 µg/mL.

The compound `CNc1ccccc1C(=O)O[C@@H]1[C@@H](C)[C@]2(O)[C@@H]3C=C(C)C(=O)[C@@H]3CC(CO)=C[C@H]2[C@@H]2C(C)(C)[C@]12OC(C)=O` displayed an MIC of over 200 µg/mL.
